The record followed here is patent publication US6566378B1, “Pesticidal compositions and pesticidal methods” (Sumitomo Chemical Company, Limited, priority 1999, dated 2003).

What all share (format): in vivo
Assay [1] relates to Helicoverpa armigera (cotton bollworm). Description: Test Example 1: test for controlling damage by Helicoverpa armigera on potted cabbage. The following applies: spray on potted cabbage, two fourth-instar larvae, damage after 6 days. As to the method:
Twenty parts of Compound (I) were dissolved in 70 parts of Solvesso 150 (solvent manufactured by Exxon Chemical), and 6 parts of Toximul 3454F (surfactant manufactured by Stepan) and 4 parts of Toximul 3455F (surfactant manufactured by Stepan) were added thereto and mixed well to give an emulsifiable concentrate. An aqueous dilution of the emulsifiable concentrate and an aqueous dilution of a water-soluble formulation of Compound A (commercial name: Mospilan water-soluble formulation produced by Kumiai Chemical Industry) were mixed together to make a designated concentration, to which a spreading agent (New Rinou manufactured by Nihon Nohyaku) was added to make a volume of the spreading agent 1/3000. The prepared application solution was sprayed over potted cabbage (at the fourth to fifth leaf stage) at a volume of 40ml per pot. The treated plants were air dried, and then two fourth-instar larvae of Helicoverpa armigera (cotton bollworm) were set free. After 6 days, the damage (%) of the plant was observed. Each controlling ratio (%) was calculated by the following equation based on the damage (%) of non-treated plant.
(§1) Controlling ratio (%)=100×(Damage of non-treated plant−Damage of treated plant)/ Damage of non-treated plant

Assay [2] shares this test system. Description: Test Example 2: test for controlling damage by Helicoverpa armigera on potted cabbage. The following applies: spray on potted cabbage, five fourth-instar larvae, damage after 7 days. The procedure: An aqueous dilution of the emulsifiable concentrate and an aqueous dilution of an emulsifiable concentrate, obtained by mixing 10 parts of Compound B or Compound C, 40 parts of xylene, 40 parts of dimethylformamide and 10 parts of Solpol 3005X, were mixed together to make a designated concentration, to which a spreading agent (New Rinou manufactured by Nihon Nohyaku) was added to make a volume of the spreading agent 1/3000. The prepared application solution was sprayed over potted cabbage (at the fourth to fifth leaf stage) at a volume of 40ml per pot. The treated plants were air dried, and then five fourth-instar larvae of Helicoverpa armigera (cotton bollworm) were set free. After 7 days, the damage (%) of the plant was observed. Each controlling ratio (%) was calculated by the following equation based on the damage (%) of non-treated plant.
as §1

The subject of assay [3] is Aphis gossypii (cotton aphid). Description: Test Example 3: test for controlling damage by Aphis gossypii on potted cucumber. The following applies: spray on potted cucumber, two days after treatment, index near zero shows high controlling effect. The procedure:
(§2) Twenty parts of Compound (I) were dissolved in 70 parts of Solvesso 150 (mentioned above), and 6 parts of Toximul 3454F (mentioned above) and 4 parts of Toximul 3455F (mentioned above) were added thereto and mixed well to give an emulsifiable concentrate. An aqueous dilution of the emulsifiable concentrate and an aqueous dilution of a water-soluble formulation of Compound A (commercial name : Mospilan water-soluble formulation produced by Kumiai Chemical Industry) were mixed together to make a designated concentration, to which a spreading agent (New Rinou manufactured by Nihon Nohyaku) was added to make a volume of the spreading agent 1/5000.
(§3) About thirty Aphis gossypii (cotton aphid) in various growth stages were set free on potted cucumber (at the first leaf stage), and then the prepared application solution was sprayed over at a volume of 40ml per pot. The treated plants were air dried, covered for preventing escape of the tested aphids and invasion from the outside and set in a greenhouse (25° C.).
(§4) Corrected indices were calculated by the following equation based on prerecorded parasitic number of tested aphids on the tested plant before treatment and the parasitic number after two days from the treatment.
Corrected index=100×(T2DAT/Tpre)/(C2DAT/Cpre)
T2DAT: Number of the tested aphids on the plant after two days from the treatment […]

Assay [4] concerns Aphis gossypii (cotton aphid). Description: Test Example 4: test for controlling damage by Aphis gossypii on potted cucumber. The following applies: spray on potted cucumber, two days after treatment. The procedure: as §2, with “an emulsifiable concentrate, obtained by mixing 10 parts” for “a water-soluble formulation”, “C, 40 parts of xylene, 40 parts of dimethylformamide and 10 parts of Solpol 3005X,” for “A (commercial name : Mospilan water-soluble formulation produced by Kumiai Chemical Industry)”
as §3, §4

As to `FC(F)(F)c1ccc(OCCCOc2c(Cl)cc(OCC=C(Cl)Cl)cc2Cl)nc1` [(I), 3,5-dichloro-1-(3,3-dichloro-2-propenyloxy)-4-[3-(5-trifluoromethylpyridin-2-yloxy)propoxy]benzene], the “Controlling ratio (%)” value came to 25% in assay [1] (2.5 ppm), 50% in assay [1] (5.0 ppm), 20% in assay [2] (2.5 ppm) and 40% in assay [2] (4 ppm). The Corrected index in assay [3] (0.5 ppm) and in assay [4] (0.5 ppm) was 83 throughout.
Regarding `C/C(=N\C#N)N(C)Cc1ccc(Cl)nc1` [Compound A, (E)-N^1-[(6-chloro-3-pyridyl)methyl]-N^2-cyano-N^1-methylacetamidine, reference compound], in assay [1] (100 ppm), the “Controlling ratio (%)” value came to 0%. Further, the Corrected index in assay [3] (0.125 ppm) was found to be 29.
Consider `CN/C(=N\[N+](=O)[O-])NCC1CCOC1` (centres unmarked) [Compound B, 1-[(tetrahydro-3-furanyl)methyl]-2-nitro-3-methylguanidine, reference compound], for which the “Controlling ratio (%)” value in assay [2] (200 ppm) stood at 40%.
`CN1COCN(Cc2cnc(Cl)s2)/C1=N/[N+](=O)[O-]` [Compound C, 3-(2-chlorothiazol-5-ylmethyl)-5-methyl-4-nitroiminoperhydro-1,3,5-oxadiazine, reference compound]: the “Controlling ratio (%)” value in assay [2] (100 ppm) is 0%. The compound also gave a Corrected index in assay [4] (0.25 ppm) of 44.
